Measurements: patent US20160333404A1, “METHODS FOR TREATING HCV” (priority 2012, published 2016)

How the values were obtained:
miR-122 [1] = test: Serum miR-122 expression by microRNA real-time PCR, Example 2, 3 days polymerase inhibitor monotherapy then with P/R; assay type: in vivo, human; details: treatment-naïve GT1 subjects, day 3 vs day 1
Procedure: Sample preparation and microRNA real-time PCR. Serum samples were collected at baseline (“BASE”), week 2 on-treatment (“W2”), week 10 on-treatment (“W10”), and 8 weeks after completing the 12 week regimen (“Post Week 8”) and frozen until analysis. Total RNA was extracted from serum using the Qiagen miRNeasy® Mini Kit. Serum was thawed on ice and centrifuged at 3000×g for 5 min in a 4° C. microcentrifuge. An aliquot of 200 μL of serum per sample was transferred to a new microcentrifuge tube and 750 μl of a Qiazol mixture containing 1.25 μg/mL of MS2 bacteriophage RNA was added to the serum. The tube was mixed and incubated for 5 min followed by the addition of 200 μL chloroform. […]
15 μl RNA was reverse transcribed in 75 μl reactions using the miRCURY LNA™ Universal RT microRNA PCR, Polyadenylation and cDNA synthesis kit (Exiqon). cDNA was diluted 50× and assayed in 10 ul PCR reactions according to the protocol for miRCURY LNA™ Universal RT microRNA PCR; each microRNA was assayed once by qPCR on the microRNA Ready-to-Use PCR, Human panel I and panel II. […] The amplification curves were analyzed using the Roche LC software, both for determination of Cp (by the 2nd derivative method) and for melting curve analysis. All data was normalized to the average of assays detected in all samples (average—assay Cp). […]

miR-122 [2] = test: Serum miR-122 levels with or without RBV, genotype 2 and 3 patients that achieved SVR (FIG. 7); assay type: in vivo, human; details: HCV 2 and 3 subjects who achieve SVR on Compound 1/r with Compound 3; presence n=13, absence n=9
Text: Sample preparation and microRNA real-time PCR. Serum samples were collected at baseline (“Baseline”), day 3 on-treatment (“Day 3”), week 2 on-treatment (“Week 2”), week 10 on-treatment (“Week 10”), and 8 weeks after completing the 12 week regimen (“PT Week 8”) and frozen until analysis. Samples were processed as described in Example 1.
In HCV 2 and 3 subjects who achieve SVR, miR-122 levels are not affected by the presence (n=13) or absence (n=9) of RBV.

| Levels of miR-122 after three days of polymerase inhibitor alone (miR-122 [1]) | SMILES | effect of presence or absence of RBV on miR-122 levels (miR-122 [2]) |
| --- | --- | --- |
| decreased | COc1c(-c2ccc3cc(NS(C)(=O)=O)ccc3c2)cc(-n2ccc(=O)[nH]c2=O)cc1C(C)(C)C [Compound 2, N-(6-(3-tert-butyl-5-(2,4-dioxo-3,4-dihydropyrimidin-1(2H)-yl)-2-methoxyphenyl)naphthalen-2-yl)methanesulfonamide] |  |
| decreased | COc1c(/C=C/c2ccc(NS(C)(=O)=O)cc2)cc(-n2ccc(=O)[nH]c2=O)cc1C(C)(C)C [Compound 4, (E)-N-(4-(3-tert-butyl-5-(2,4-dioxo-3,4-dihydropyrimidin-1(2H)-yl)-2-methoxystyryl)phenyl)methanesulfonamide] |  |
|  | NC(=O)c1ncn([C@@H]2O[C@H](CO)[C@@H](O)[C@H]2O)n1 [RBV, ribavirin] | not affected |
